Reference: US9307765B2, “Selective weed control using D-napropamide” (UPL Limited, priority 2013, dated 2016)
Where “and” joins values, the source holds several entries; their conditions need not be identical. Equal values may be shown once.

Tests used:
Type in all cases: in vivo
Senecio vulgaris = experiment: Field trial in winter oilseed rape, pre-emergence, % control
Procedure: (§1) Field trials were conducted on various moncotyledonous weeds and dicotyledonous weeds and the effect of D-isomer of Napropamide was studied to understand the selective and effective control of dicotyledonous weeds over monocotyledonous weeds. The effect of D-isomer of Napropamide in comparison to racemic napropramide and untreated was studied, which is concluded hereinbelow:
(§2) Several small plot replicated trials were carried out to evaluate and/or compare the efficacy of D-Napropamide against a range of indicated annual broadleaved and grass weed species in the indicated crops. No problems were encountered during mixing or application of any of the product formulations or tank mixtures under test.
(§3) In each of the reported data, the homogeneity of variance was tested by Bartlett's test. Wherever this test indicated no homogeneity of variance, the transformed values were used for analysis of variance. Assessment data was then analyzed using a two-way analysis of variance (ANOVA) on untransformed and transformed data. The probability of no significant differences occurring between treatment means was calculated as the F probability value (p(F)). A mean comparison test was only performed and reported when the treatment of F that was calculated during analysis of variance was significant at the observed significance level specified for the mean comparison test. Where the data was transformed, treatment means in the reports were presented in their detransformed state, with the appropriate letter test and mean descriptions (LSD and standard deviation) derived from the transformed ANOVA.
(§4) Trials were conducted to evaluate the selectivity and efficacy of D-isomer of Napropamide when applied pre-emergence to oilseed rape crop. The % control of weed was assessed at regular intervals.

Triticum aestivum = experiment: as above
Procedure: as §1, §2, §3, §4

Aperaspica-venti = experiment: as above
Procedure: as §1, §2, §3, §4

Fallopia convolvulus = experiment: as above
Procedure: as §1, §2, §3, §4

Veronica persica = experiment: as above
Procedure: as §1, §2, §3, §4

Cirsium arvense = experiment: as above
Procedure: as §1, §2, §3, §4

Ranunculus repens = experiment: Field trial on strawberries, pre-emergence, visual % control
Procedure: as §1, §2, §3
Trial was carried out on strawberries to evaluate the efficacy and selectivity of D-Napropamide and equivalent rate of Devrinol (Napropramide) applied pre-emergence. […] The percentage control of D-isomer of Napropamide and Devrinol was assessed in comparison to the untreated after 224 days after application.

[1] = 450 g/L @ 1.6 L/Ha, listed as D Napropamide

`CCN(CC)C(=O)[C@@H](C)Oc1cccc2ccccc12` [D-Napropamide, D-(−)-N,N-diethyl-2-(α-naphthoxy)propionamide] was tested, and the “Percentage Control at 214 DAA” value (Senecio vulgaris; [1]) was 82.15% and 94.72%, the “Conclusion: efficacy in control vis-à-vis Napropamide at an equivalent dosage” value (“Conclusion: efficacy” below) (Senecio vulgaris; Senecio vulgaris, dicot) was “superior efficacy” and the “Percentage Control at 51 DAA” value (Triticum aestivum; 450 g/L @ 1.4 L/Ha) was 0.00%. The “Percentage Control at 72 DAA” value (Triticum aestivum; 450 g/L @ 1.4 L/Ha) was 0.00%, the “Percentage Control at 51 DAA” value (Triticum aestivum; 450 g/L @ 1.6 L/Ha) was 0.00% and the “Percentage Control at 72 DAA” value (Triticum aestivum; 450 g/L @ 1.6 L/Ha) was 0.00%. The “Percentage Control at 51 DAA” value (Triticum aestivum; 450 g/L @ 1.8 L/Ha) was 0.00%, the “Percentage Control at 72 DAA” value (Triticum aestivum; 450 g/L @ 1.8 L/Ha) was 0.00% and the “Percentage Control at 51 DAA” value (Triticum aestivum; 450 g/L @ 2.0 L/Ha) was 0.00%. For the same compound, the “Percentage Control at 72 DAA” value (Triticum aestivum; 450 g/L @ 2.0 L/Ha) was 0.00%, the “Conclusion: control of the weed” value (Triticum aestivum; Triticum aestivum, monocot) was “negligible control” and the “Percentage Control at 63 DAA” value (Aperaspica-venti; 450 g/L @ 1.4 L/Ha) was 35.00%. The “Percentage Control at 63 DAA” value (Aperaspica-venti; 450 g/L @ 1.6 L/Ha) was 58.75%, the “Percentage Control at 63 DAA” value (Aperaspica-venti; [1]) was 52.50% and the “Conclusion: efficacy” value (Aperaspica-venti; Aperaspica-venti, monocot) was “poor efficacy”. For the same compound, the “Percentage Control at 63 DAA” value (Fallopia convolvulus; 450 g/L @ 1.6 L/Ha) was 100.00%, the “Percentage Control at 63 DAA” value (Fallopia convolvulus; 450 g/L @ 2.0 L/Ha) was 100.00% and the “Conclusion: efficacy” value (Fallopia convolvulus; Fallopia convolvulus, dicot) was “superior efficacy”. For the same compound, the “Percentage Control at 63 DAA” value (Veronica persica; 450 g/L @ 1.4 L/Ha) was 100.00%, the “Percentage Control at 63 DAA” value (Veronica persica; 450 g/L @ 1.6 L/Ha) was 100.00% and the “Conclusion: efficacy” value (Veronica persica; Veronica persica, dicot) was “superior efficacy”. The “Percentage Control at 51 DAA” value (Cirsium arvense; 450 g/L @ 1.6 L/Ha) was 100.00%, the “Conclusion: control of the weed at equivalent dosage” value (Cirsium arvense; Cirsium arvense, dicot) was “superior control” and the “Percentage Control at 224 DAA” value (Ranunculus repens; 3.0 L/Ha of 450 g/L formulation) was 66.7%. For the same compound, the “Percentage Control at 224 DAA” value (Ranunculus repens; 4.2 L/Ha of 450 g/L formulation) was 100%, the “Percentage Control at 224 DAA” value (Ranunculus repens; 8.5 L/Ha of 450 g/L formulation) was 100% and the “Conclusion: efficacy” value (Ranunculus repens; Ranunculus repens) was “surprising efficacy”.
